# Data as given in ChEMBL document CHEMBL4680139, “Antiproliferative activity of diarylnaphthylpyrrolidine derivative via dual target inhibition” (Eur J Med Chem, 2020).
# Tests used:
# [1] = Toxicity in Swiss albino mouse assessed as absolute and relative spleen weight at 5 to 300 mg/kg, po administered as single dose; type: organism-based; conditions: in vivo, dose 5-300 mg/kg
# MCF7 [2] = experiment: Induction of apoptosis in human MCF-7 cells assessed as proportion of late apoptotic cells at 4.33 uM measured after 24 hrs by Annexin V- FITC/propidium iodide staining based flow cytometry (reference value: 0.1%); type: functional
# MCF7 [3] = experiment: Antiproliferative activity against human MCF-7 cells assessed as inhibition of cell growth measured after 48 hrs by SRB assay; type: functional, cell-based; conditions: MCF7, 48 h
# MCF7 [4] = experiment: Induction of apoptosis in human MCF-7 cells assessed as proportion of early apoptotic cells at 2.17 uM measured after 24 hrs by Annexin V- FITC/propidium iodide staining based flow cytometry (reference value: 0%); type: functional
# MCF7 [5] = experiment: Induction of apoptosis in human MCF-7 cells assessed as proportion of viable cells at 8.66 uM measured after 24 hrs by Annexin V- FITC/propidium iodide staining based flow cytometry (reference value: 94.6%); type: functional
# [6] = Toxicity in Swiss albino mouse assessed as creatinine level in serum at 300 mg/kg, po administered as single dose (reference value: 0.27+/-0.02 mg/dl); type: organism-based; conditions: in vivo
# MCF7 [7] = experiment: Induction of apoptosis in human MCF-7 cells at 4.33 uM by propidium iodide staining based flow cytometry (reference value: 2.1%); type: functional
# [8] = biological target: DNA topoisomerase 2-alpha (Homo sapiens) (UniProt P11388); experiment: Inhibition of DNA-topoisomerase 2 in human MCF7 cells using kinetoplast DNA as substrate at 8.66 uM measured by ELISA; type: cell-based
# Sequence of DNA topoisomerase 2-alpha (Homo sapiens) (P11388 whole entry): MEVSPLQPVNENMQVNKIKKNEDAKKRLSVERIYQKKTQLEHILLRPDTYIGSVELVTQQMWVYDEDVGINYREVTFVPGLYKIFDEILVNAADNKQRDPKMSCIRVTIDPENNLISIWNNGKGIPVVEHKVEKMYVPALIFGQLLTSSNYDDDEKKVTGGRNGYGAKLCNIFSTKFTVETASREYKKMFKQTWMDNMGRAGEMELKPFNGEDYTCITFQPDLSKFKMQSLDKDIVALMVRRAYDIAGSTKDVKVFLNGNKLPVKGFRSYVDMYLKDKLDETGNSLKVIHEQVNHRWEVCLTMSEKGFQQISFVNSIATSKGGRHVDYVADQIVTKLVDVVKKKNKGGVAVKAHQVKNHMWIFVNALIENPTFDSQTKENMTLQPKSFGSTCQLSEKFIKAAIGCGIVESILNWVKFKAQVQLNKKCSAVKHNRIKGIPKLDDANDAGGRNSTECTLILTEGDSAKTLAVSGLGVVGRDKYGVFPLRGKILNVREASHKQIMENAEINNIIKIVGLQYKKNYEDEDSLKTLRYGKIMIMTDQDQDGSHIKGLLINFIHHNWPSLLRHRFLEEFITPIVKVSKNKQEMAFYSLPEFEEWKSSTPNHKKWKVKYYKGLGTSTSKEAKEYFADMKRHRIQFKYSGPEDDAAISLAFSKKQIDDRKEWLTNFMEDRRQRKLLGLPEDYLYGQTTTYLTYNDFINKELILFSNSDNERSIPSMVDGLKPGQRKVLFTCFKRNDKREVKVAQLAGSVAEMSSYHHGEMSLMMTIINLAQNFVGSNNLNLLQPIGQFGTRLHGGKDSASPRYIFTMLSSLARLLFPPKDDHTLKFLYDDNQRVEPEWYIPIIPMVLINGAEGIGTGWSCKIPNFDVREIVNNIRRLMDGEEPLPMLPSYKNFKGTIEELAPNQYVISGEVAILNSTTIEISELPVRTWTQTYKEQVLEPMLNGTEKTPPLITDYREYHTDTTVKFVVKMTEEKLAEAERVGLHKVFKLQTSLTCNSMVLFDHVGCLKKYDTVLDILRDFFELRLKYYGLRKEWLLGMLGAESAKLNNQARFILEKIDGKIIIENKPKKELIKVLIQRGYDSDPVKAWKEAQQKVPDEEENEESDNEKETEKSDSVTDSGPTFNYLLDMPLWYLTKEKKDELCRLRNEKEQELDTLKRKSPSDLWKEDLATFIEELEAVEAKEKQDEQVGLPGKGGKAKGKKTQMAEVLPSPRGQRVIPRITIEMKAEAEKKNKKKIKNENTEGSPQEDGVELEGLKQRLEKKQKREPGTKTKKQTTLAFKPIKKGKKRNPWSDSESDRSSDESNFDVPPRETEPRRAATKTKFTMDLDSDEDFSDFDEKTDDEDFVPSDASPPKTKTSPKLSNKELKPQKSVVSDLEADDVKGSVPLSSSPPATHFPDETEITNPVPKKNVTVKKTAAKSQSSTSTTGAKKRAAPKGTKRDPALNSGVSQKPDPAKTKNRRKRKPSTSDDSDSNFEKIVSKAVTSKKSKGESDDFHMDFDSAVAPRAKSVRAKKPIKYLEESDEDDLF
# MCF7 [9] = experiment: Induction of apoptosis in human MCF-7 cells assessed as proportion of necrotic cells at 2.17 uM measured after 24 hrs by Annexin V- FITC/propidium iodide staining based flow cytometry (reference value: 5.3%); type: functional
# MCF7 [10] = experiment: Induction of cell cycle arrest in human MCF-7 cells assessed as accumulation at G2/M phase at 8.66 uM by propidium iodide staining based flow cytometry (reference value: 15.2%); type: functional
# MDA-MB-231 [11] = experiment: Induction of cell cycle arrest in human MDA-MB-231 cells assessed as accumulation at S phase at 5.21 uM by propidium iodide staining based flow cytometry (reference value: 11.35 +/- 0.07%); type: functional
# [12] = Toxicity in Swiss albino mouse assessed as cholesterol level in serum at 50 mg/kg, po administered as single dose (reference value: 103.62 +/-7.45 mg/dl); type: organism-based; conditions: in vivo
# MCF7 [13] = experiment: Antiproliferative activity against human MCF-7 cells assessed as proportion of dead cells at 25 ug/ml measured after 3 weeks by crystal violet staining based soft agar colony formation assay; type: functional; conditions: dose 25 µg/ml
# MDA-MB-231 [14] = experiment: Induction of apoptosis in human MDA-MB-231 cells assessed as proportion of early apoptotic cells at 10.42 uM measured after 24 hrs by Annexin V-FITC/propidium iodide staining based flow cytometry (reference value: 0.2%); type: functional
# MDA-MB-231 [15] = experiment: Induction of apoptosis in human MDA-MB-231 cells assessed as proportion of early apoptotic cells at 5.21 uM measured after 24 hrs by Annexin V-FITC/propidium iodide staining based flow cytometry (reference value: 0.2%); type: functional
# [16] = Inhibition of bovine brain tubulin polymerisation measured by turbidometric method; type: tissue-based, Bos taurus
# MDA-MB-231 [17] = experiment: Induction of apoptosis in human MDA-MB-231 cells assessed as proportion of necrotic cells at 2.6 uM measured after 24 hrs by Annexin V-FITC/propidium iodide staining based flow cytometry (reference value: 0.2%); type: functional
# MCF7 [18] = experiment: Induction of cell cycle arrest in human MCF-7 cells assessed as accumulation at S phase at 4.33 uM by propidium iodide staining based flow cytometry (reference value: 6.9%); type: functional
# MCF7 [19] = experiment: Induction of cell cycle arrest in human MCF-7 cells assessed as accumulation at G0/G1 phase at 4.33 uM by propidium iodide staining based flow cytometry (reference value: 74.5%); type: functional
# MCF7 [20] = experiment: Induction of cell cycle arrest in human MCF-7 cells assessed as accumulation at G2/M phase at 4.33 uM by propidium iodide staining based flow cytometry (reference value: 15.2%); type: functional
# [21] = Toxicity in Swiss albino mouse assessed as SGPT level in serum at 300 mg/kg, po administered as single dose (reference value: 21.81 +/-2.1 U/L); type: organism-based; conditions: in vivo
# MCF7 [22] = experiment: Antiproliferative activity against human MCF-7 cells assessed as proportion of dead cells at 6.25 ug/ml measured after 3 weeks by crystal violet staining based soft agar colony formation assay; type: functional; conditions: dose 6.25 µg/ml
# MDA-MB-231 [23] = experiment: Induction of apoptosis in human MDA-MB-231 cells assessed as proportion of necrotic cells at 5.21 uM measured after 24 hrs by Annexin V-FITC/propidium iodide staining based flow cytometry (reference value: 0.2%); type: functional
# [24] = Toxicity in Swiss albino mouse assessed as triglyceride level in serum at 5 mg/kg, po administered as single dose (reference value: 78.34 +/-2.99 mg/dl); type: organism-based; conditions: in vivo
# [25] = Toxicity in Swiss albino mouse assessed as mortality upto 300 mg/kg, po administered as single dose; type: organism-based; conditions: in vivo
# [26] = Toxicity in Swiss albino mouse assessed as serum protein level at 300 mg/kg, po administered as single dose (reference value: 2.83 +/-0.09 mg/ml); type: organism-based; conditions: in vivo
# [27] = Toxicity in Swiss albino mouse assessed as WBC level in blood at 50 mg/kg, po administered as single dose (reference value: 17.06 +/- 1.33x10^3/mm3); type: organism-based; conditions: in vivo
# [28] = Toxicity in Swiss albino mouse assessed as absolute and relative lung weight at 5 to 300 mg/kg, po administered as single dose; type: organism-based; conditions: in vivo, dose 5-300 mg/kg
# [29] = biological target: DNA topoisomerase 2-alpha (Homo sapiens) (UniProt P11388); experiment: Inhibition of DNA-topoisomerase 2 in human MCF7 cells using kinetoplast DNA as substrate measured by ELISA; type: cell-based; conditions: dose 4.33-17.32 µM
# [30] = Toxicity in Swiss albino mouse assessed as WBC level in blood at 300 mg/kg, po administered as single dose (reference value: 17.06 +/- 1.33x10^3/mm3); type: organism-based; conditions: in vivo
# MCF7 [31] = experiment: Induction of apoptosis in human MCF-7 cells at 8.66 uM by propidium iodide staining based flow cytometry (reference value: 2.1%); type: functional
# [32] = Toxicity in po dosed Swiss albino mouse administered as single dose; type: organism-based; conditions: in vivo
# [33] = Toxicity in Swiss albino mouse assessed as morbidity upto 300 mg/kg, po administered as single dose; type: organism-based; conditions: in vivo
# [34] = Toxicity in Swiss albino mouse assessed as body weight at 300 mg/kg, po administered as single dose (reference value: 31.62 +/- 1.64 gms); type: organism-based; conditions: in vivo
# [35] = Toxicity in Swiss albino mouse assessed as albumin level in serum at 300 mg/kg, po administered as single dose (reference value: 0.56 +/-0.02 g/dl); type: organism-based; conditions: in vivo
# [36] = Toxicity in Swiss albino mouse assessed as SGPT level in serum at 5 mg/kg, po administered as single dose (reference value: 21.81 +/-2.1 U/L); type: organism-based; conditions: in vivo
smiles,measurement,setting,value
COc1ccc(C(c2ccccc2OCCN2CCCC2)c2cccc3ccccc23)c(OC)c1OC (stereo unspecified),Activity,[1],Non-Toxic
same,Activity,MCF7 [2],25.8%
same,IC50,MCF7 [3],4.33 µM
same,Activity,MCF7 [4],0%
same,Activity,MCF7 [5],61.8%
same,Activity,[6],0.2 mg/dL
same,Activity,MCF7 [7],4.7%
same,inhibition,[8],13.7%
same,Activity,MCF7 [9],5%
same,Activity,MCF7 [10],12.8%
same,Activity,MDA-MB-231 [11],7.9%
same,Activity,[12],100.11 mg/dL
same,Activity,MCF7 [13],79.36%
same,Activity,MDA-MB-231 [14],1.7%
same,Activity,MDA-MB-231 [15],0.4%
same,IC50,[16],5.65 µM
same,Activity,MDA-MB-231 [17],2.1%
same,Activity,MCF7 [18],13.9%
same,Activity,MCF7 [19],67.4%
same,Activity,MCF7 [20],13.4%
same,Activity,[21],22.34 U/L
same,Activity,MCF7 [22],29.23%
same,Activity,MDA-MB-231 [23],1.7%
same,Activity,[24],77.24 mg/dL
same,Activity,[25],Non-Toxic
same,Activity,[26],2.87 mg/mL
same,Activity,[27],13.46 10^3/mm3
same,Activity,[28],Non-Toxic
same,inhibition,[29],Dose-dependent effect
same,Activity,[30],7.19 10^3/mm3
same,Activity,MCF7 [31],11.4%
same,MTD,[32],≤ 300 mg/kg
same,Activity,[33],Non-Toxic
same,Activity,[34],31.03 g
same,Activity,[35],0.54 g/dL
same,Activity,[36],21.18 U/L
